Assay results published in a compilation of properties of binary mixtures (doi:10.1021/je060497d).

Assay: xn = mol fraction of the nth substance listed
Details: 101 kPa

COS(=O)(=O)[O-].Cn1cc[n+](C)c1 + CCC(C)=O
speed of sound [m/s]
Details	x1 = 0.0006	x1 = 0.0012	x1 = 0.0029	x2 = 0	x2 = 0.0257	x2 = 0.0716	x2 = 0.2017	x2 = 0.2926
293.15 K	1214	–	1217	1826	1819	1803	1750	1703
298.15 K	1194	1195	–	–	–	1791	1737	1689
303.15 K	–	1165	1168	1801	–	–	1724	1676

CCOC(C)=O + CCCCCCCC[n+]1ccn(C)c1.F[P-](F)(F)(F)(F)F
x1 = 1
Details	speed of sound [m/s]
298.15 K	1141
303.15 K	1111

CC(C)O + CCCC[n+]1ccn(C)c1.F[P-](F)(F)(F)(F)F
x1 = 1
Details	speed of sound [m/s]
293.15 K	1156
303.15 K	1121

CCC(C)=O + CCCC[n+]1ccn(C)c1.F[P-](F)(F)(F)(F)F
Details	speed of sound [m/s]
303.15 K, x1 = 1	1163

CCOC(C)=O + CCCC[n+]1ccn(C)c1.F[P-](F)(F)(F)(F)F
Details	speed of sound [m/s]
293.15 K, x1 = 1	1162

CCCCCCCC[n+]1ccn(C)c1.F[P-](F)(F)(F)(F)F + CCOC(C)=O
speed of sound [m/s]
Details	293.15 K	298.15 K	303.15 K
x2 = 0	1424	1408	1393
x2 = 0.0048	–	1408	–
x2 = 0.0967	1408	1393	1379
x2 = 0.1981	1391	1377	1364
x2 = 0.2967	1375	1361	1348
x2 = 0.3954	1358	1344	1330
x2 = 0.5056	1337	1323	–
x2 = 0.6061	1315	1299	1284
x2 = 0.7059	1288	1271	1253
x2 = 0.8004	–	1236	1218
x2 = 0.9036	1209	1189	1169
x2 = 0.9453	1189	–	1147

CCCC[n+]1ccn(C)c1.F[P-](F)(F)(F)(F)F + CCOC(C)=O
speed of sound [m/s]
Details	293.15 K	298.15 K	303.15 K
x2 = 0	1455	1443	1431
x2 = 0.0501	1447	1436	1420
x2 = 0.1003	1438	1427	–
x2 = 0.1854	1421	1412	1401
x2 = 0.3	–	1391	1378
x2 = 0.4064	1379	1366	1354
x2 = 0.5117	1350	–	–
x2 = 0.6032	1319	1310	1291
x2 = 0.7061	1280	–	–
x2 = 0.802	1240	1228	1207
x2 = 0.9021	–	1180	1160
x2 = 0.948	–	1162	1137

COS(=O)(=O)[O-].Cn1cc[n+](C)c1 + CCOC(C)=O
speed of sound [m/s]
Details	x2 = 0	x2 = 0.0509	x2 = 0.0706	x2 = 0.0928	x2 = 0.1254	x2 = 0.1451
293.15 K	1826	1808	–	1792	1775	1765
298.15 K	1813	1795	1789	1778	1765	1752
303.15 K	1801	1782	1777	1764	1746	–

CC(C)O + COS(=O)(=O)[O-].Cn1cc[n+](C)c1
x1 = 1
Details	speed of sound [m/s]
293.15 K	1156
303.15 K	1121

CCC(C)=O + COS(=O)(=O)[O-].Cn1cc[n+](C)c1
x1 = 1
Details	speed of sound [m/s]
293.15 K	1212
303.15 K	1163

CCOC(C)=O + COS(=O)(=O)[O-].Cn1cc[n+](C)c1
x1 = 1
Details	speed of sound [m/s]
293.15 K	1162
303.15 K	1111
